Results published in patent US12667100B2, “Composition comprising benzylamine acaricide and use thereof” (SHANDONG KANGQIAO BIO-TECHNOLOGY CO., LTD, priority 2021, dated 2026).
Values joined by “and” are separate entries in the source; they are usually repeats but may differ in a detail not shown here. Identical values can stand only once. Like-named read-outs stand apart in the source and are kept apart here.

Tested on: Tetranychus cinnabarinus Boi, adult mite
Test: whole plant or invertebrate
Format: in vivo
Experimental: Test subject: Tetranychus cinnabarinus Boi, adult mite, indoor rearing sensitive strain.
Test condition: 25° C. constant temperature incubator, 60% relative humidity, light L:D=14:10
Test solution formulation: according to the test needs, accurately weigh the test sample more than 50 mg by using an electronic analytical balance, mixed with acetone to the required concentration, according to calculation, the sample of acetone solution added to a volumetric flask, diluted by aqueous solution with 0.1 wt % Tween 80 to obtain the required concentration of the solution.
Test method: One true leaf was removed after cutting the seedlings of beans, and one true leaf was added to the hydroponic glass jar after leaving the leaf to access about 50-150 adult Tetranychus cinnabarinus Boi of the same size, and the mite base was counted the next day. The Airbrush method was used to treat the test material with medicinal spray, 1.5 mL of medicinal spray was sprayed for each treatment, and a blank control was set for three treatments.
After spraying and drying naturally, the treated test material was placed in a constant temperature observation room. 72 hours later, the number of live mites was investigated and the mortality rate was calculated. The Bliss method was used for evaluation, and the theoretical mortality rate could be calculated by the following formula: P=Pm+Pn(1−Pm)
Pm is the mortality rate (%) of the target at a concentration of m for the first active component (active component a); Pn is the mortality rate (%) of the target at a concentration of n for the second active component (active component b).

[1] = Tetranychus cinnabarinus, 72 h, read-out: 72 h mortality rate
[2] = Tetranychus cinnabarinus, 72 h, single agent 0.01 mg/L, adult mites, 72 h after spraying, read-out: 72 h mortality rate
[3] = Tetranychus cinnabarinus, 72 h, single agent 0.04 mg/L, adult mites, 72 h after spraying, read-out: 72 h mortality rate
[4] = Tetranychus cinnabarinus, 72 h, single agent 0.2 mg/L, adult mites, 72 h after spraying, read-out: 72 h mortality rate
[5] = Tetranychus cinnabarinus, 72 h, single agent 0.4 mg/L, adult mites, 72 h after spraying, read-out: 72 h mortality rate
[6] = Tetranychus cinnabarinus, 72 h, single agent 0.8 mg/L, adult mites, 72 h after spraying, read-out: 72 h mortality rate
[7] = single agent 0.2 mg/L, adult mites, 72 h after spraying
[8] = single agent 0.4 mg/L, adult mites, 72 h after spraying
[9] = single agent 0.8 mg/L, adult mites, 72 h after spraying
[10] = single agent 0.01 mg/L, adult mites, 72 h after spraying
[11] = single agent 0.04 mg/L, adult mites, 72 h after spraying
[12] = single agent 1 mg/L, adult mites, 72 h after spraying
[13] = single agent 5 mg/L, adult mites, 72 h after spraying

Clc1ccccc1-c1nnc(-c2ccccc2Cl)nn1 [clofentezine]
mortality at 0.04 µg/mL [1]: 0%
mortality at 0.2 µg/mL [1]: 0%
mortality at 1 µg/mL [1]: 9.1%
mortality at 8 µg/mL [1]: 18.2%
mortality at 40 µg/mL [1]: 41.3%

COC(=O)c1ccccc1CNc1cc(SCC(F)(F)F)c(C)cc1F [Compound A1]
mortality at 0.01 µg/mL [2]: 0%
mortality at 0.04 µg/mL [3]: 0%
mortality at 0.2 µg/mL [4]: 27.9%
mortality at 0.4 µg/mL [5]: 40.1%
mortality at 0.8 µg/mL [6]: 74.6%
72 h mortality rate [7]: 22.2% and 28.1% and 26.8% and 19.8%
72 h mortality rate [8]: 40.4% and 43.3% and 41.7% and 42.3%
72 h mortality rate [9]: 74.3% and 72.6% and 72.7% and 74.1%

COC(=O)c1ccccc1CNc1cc(SCC(F)(F)F)c(Cl)cc1F [Compound A9]
mortality at 0.01 µg/mL [2]: 0%
mortality at 0.04 µg/mL [3]: 0%
mortality at 0.2 µg/mL [4]: 19.8%
mortality at 0.4 µg/mL [5]: 42.2%
mortality at 0.8 µg/mL [6]: 62.3%
72 h mortality rate [7]: 18.5% and 27.5% and 22.1% and 22.4%
72 h mortality rate [8]: 41.9% and 36.0% and 40.8% and 34.5%
72 h mortality rate [9]: 64.1% and 67.1% and 64.6% and 65.8%

Cc1cc(C)c(C2=C(OC(=O)CC(C)(C)C)C3(CCCC3)OC2=O)c(C)c1 [spiromesifen]
72 h mortality rate [10]: 0%
72 h mortality rate [11]: 0%
72 h mortality rate [7]: 0%
72 h mortality rate [8]: 14.1%
72 h mortality rate [12]: 30.4%
72 h mortality rate [13]: 64.9%

CCn1nc(C)cc1/C(OC(=O)C(C)(C)C)=C(/C#N)c1ccc(C(C)(C)C)cc1 [cyetpyrafen]
72 h mortality rate [10]: 0%
72 h mortality rate (single agent 0.05 mg/L, adult mites, 72 h after spraying): 2.8%
72 h mortality rate (single agent 0.1 mg/L, adult mites, 72 h after spraying): 17.0%
72 h mortality rate [7]: 37.9%
72 h mortality rate (single agent 0.5 mg/L, adult mites, 72 h after spraying): 75.5%

CC[C@H](C)[C@H]1O[C@]2(C=C[C@@H]1C)C[C@@H]1C[C@@H](C/C=C(\C)[C@@H](O[C@H]3C[C@H](OC)[C@@H](O[C@H]4C[C@H](OC)[C@@H](O)[C@H](C)O4)[C@H](C)O3)[C@@H](C)/C=C/C=C3\CO[C@@H]4[C@H](O)C(C)=C[C@@H](C(=O)O1)[C@]34O)O2 [avermectin]
mortality at 0.0005 µg/mL [1]: 0%
mortality at 0.0025 µg/mL [1]: 14.8%
mortality at 0.01 µg/mL [1]: 37.3%
mortality at 0.02 µg/mL [1]: 70%

CCC(C)(C)C(=O)OC1=C(c2ccc(Cl)cc2Cl)C(=O)OC12CCCCC2 [spirodiclofen]
72 h mortality rate [10]: 0%
72 h mortality rate [11]: 0%
72 h mortality rate [7]: 0%
72 h mortality rate [8]: 9.4%
72 h mortality rate [12]: 24.2%
72 h mortality rate [13]: 56.9%

CCOc1cc(C(C)(C)C)ccc1C1COC(c2c(F)cccc2F)=N1 (stereo not drawn) [etoxazole]
mortality at 0.01 µg/mL [1]: 0%
mortality at 0.04 µg/mL [1]: 0%
mortality at 0.2 µg/mL [1]: 9.3%
mortality at 0.4 µg/mL [1]: 21.4%
mortality at 1 µg/mL [1]: 26.6%
mortality at 5 µg/mL [1]: 43.6%

C#CCOS(=O)OC1CCCCC1Oc1ccc(C(C)(C)C)cc1 (stereo not drawn) [propargite]
mortality at 0.1 µg/mL [1]: 0%
mortality at 0.4 µg/mL [1]: 0%
mortality at 4 µg/mL [1]: 3.9%
mortality at 25 µg/mL [1]: 34.1%

C[C@@H]1[C@@H](c2ccc(Cl)cc2)SC(=O)N1C(=O)NC1CCCCC1 [hexythiazox]
mortality at 0.04 µg/mL [1]: 0%
mortality at 0.2 µg/mL [1]: 12.8%
mortality at 1 µg/mL [1]: 21.3%
mortality at 8 µg/mL [1]: 36.3%
mortality at 40 µg/mL [1]: 69.5%
